From US11883423B2, “Nucleobase analogue derivatives and their applications” (BOARD OF REGENTS, THE UNIVERSITY OF TEXAS SYSTEM, priority 2014, dated 2024)

Tests used:
Panc-1-Luc tumors = test: Antitumor activity against orthotopic Panc-1-Luc tumors in nude mice, with tumor histology; type: in vivo
Excerpt: Nude mice with intrapancreatically injected Panc-1-Luc human pancreatic cancer cells were used as a mouse model of pancreatic cancer. The National Institutes of Health guidelines for animal use and care were followed Animal protocols were approved by the Institutional Animal Care and Use Committee at the University of Texas at Austin. Panc-1-Luc cells (Muniz VP et al. Mol Cancer Res. 2011, 9(7), 867-877) were implanted orthotopically by injecting 1×10^6 cells into (the tail of) the pancreas.
Panc-1-Luc cell suspension was prepared at a concentration of 2×10^7 per ml in a 1:1 (v/v) mixture of DMEM and Matrigel. Tumor cells were then injected into the pancreas of male athymic nude mice (6-8 weeks, Charles River Laboratories, Wilmington, Mass.) following a surgical procedure (Raut CP et al. Cancer Biol Ther. 2004, 3(12), 1217-1224; Bruns CJ et al. Neoplasia. 1999, 1(1), 50-62). Briefly, after mice were anesthetized using isoflurane, the skin and peritoneum were cut open about 1 cm in length using sterile surgical scalpels. The pancreas was pulled out, and 50 μL of the cell suspension were injected slowly until a small bleb was formed. After the needle was withdrawn, a small cotton plug was applied for 10 s. The pancreas was returned back, the peritoneum was sutured with Monocryl™ bioresorbable sutures (Ethicon, Somerville, N.J.), and the skin was then closed using surgical clips. Mice were s.c. injected with buprenorphine (0.1 mg/kg) as a pain killer and were left to heal for one week. Tumor progress was monitored using an IVIS™ Spectrum imaging system (Caliper, Hopkinton, MA). For IVIS imaging, each mouse was i.p. injected with a luciferin solution (15 mg/ml) at a dose of 0.15 mg/g body weight in sterile DPBS, anesthetized with isoflurane, and imaged 10 min after luciferin injection. Four weeks after tumor implantation, mice with tumors were randomized into 3 groups (n=5-7) and intraperitoneally injected (i.p) with Gem-DHA (50 mg/kg, ˜0.087 mmole/kg), gemcitabine HCl (26.1 mg/kg, ˜0.087 mmole/kg), or left untreated. Gem-DHA was in a Tween 80/ethanol/water solution with 5% (w/v) of mannitol, and gemcitabine HCl was in sterile mannitol solution (5%, w/v). Treatments were repeated twice a week for a total 7 doses. Thirty days after the first treatment, mice were sacrificed and tumors were dissected from the pancreas, weighed, and fixed in formalin. The doses were based on the average weight of mice in the same group on the day of injection, and were adjusted only if the weight of an individual mouse was above or below 10% of the average weight.
Tumor tissues were sectioned and stained in the Histology and Tissue Analysis Core at Dell Pediatric Research Institute at the University of Texas at Austin or in the Department of
Molecular Carcinogenesis at the University of Texas M.D. Anderson Cancer Center at Science Park (Smithville, Texas) with hematoxylin & eosin (H&E), antibodies against cleaved lamin-A (apoptosis marker), CD-31 (angiogenesis marker), or Ki-67 (proliferation marker). Slides were then scanned, and images were taken using the ScanScope XT (Aperio Technologies, Vista, CA). […] In addition, several areas of necrosis can also be seen in the centers of the tumors. […] Several pyknotic cells with condensed chromatin can also be seen in tumors in mice that were treated with Gem-DHA.

BxPC-3 cells = test: Anti-proliferative activity, MTT assay, BxPC-3 cells; type: cell-based, human; conditions: Bx-PC3 cells
Protocol: (§1) The anti-proliferative activity of Gem-DHA was evaluated in Panc-02, TC-1, Panc-1-Luc, and BxPC-3 cell lines. For Panc-02 and TC-1 cells, cells (1,500/well for Panc-02 and 3,000/well for TC-1) were seeded in 96-well plates and incubated at 37° C. and 5% CO2 overnight. The cells were then treated with various concentrations of Gem-DHA or other compounds for 24 h. For BxPC-3 and Panc-1-Luc cells, 3,000 and 1,000 cells/well were used, respectively, and cells were co-incubated with the Gem-DHA for 72 h. Cell viability was determined using an MTT assay as previously described (Naguib YW et al. Mol Pharm. 2014, 11(4), 1239-1249). Gemcitabine HCl was dissolved in cell culture medium, whereas Gem-DHA and DHA were dissolved in dimethylsulfoxide (DMSO). The values of IC50 were calculated using GraphPad Prism (GraphPad software, Inc., La Jolla, CA).

[1] = Biodistribution in TC-1 tumor-bearing mice; type: in vivo, C57BL/6 mice; conditions: 90 min after i.v. 75 mg/kg
Protocol: A biodistribution study was carried out in TC-1 tumor-bearing C57BL/6 mice. When tumor diameters reached 7-8 mm (i.e., about 4 weeks after tumor cell injection), mice were injected via the tail vein with a Gem-DHA solution (75 mg/kg). Ninety minutes later, mice were euthanized to collect tumors and major organs (e.g., liver, kidneys, spleen, lung, heart, and pancreas). Tissues were homogenized, and Gem-DHA was extracted using ethyl acetate as mentioned above and analyzed using HPLC.

Panc-02 tumor cells = test: Cytotoxicity after 4 h co-incubation, MTT test; type: cell-based, mouse; conditions: Panc-02 cells, at 60 μM
Protocol: The mechanisms underlying the cytotoxicity of the Gem-DHA may be different from that of gemcitabine. For example, in cell culture studies, Panc-02 cells were seeded into 96-well plates (1,500 cells per well) and incubated at 37° C., 5% CO2 for 24 h. They were then co-incubated with various concentrations of Gem-DHA, gemcitabine HCl alone, or DHA alone for 4 h, and cell viability was determined using an MTT test.

[2] = test system: TC-1 mouse lung cancer cells; test: Anti-proliferative activity, MTT assay, TC-1 cells; type: cell-based; conditions: 24 h
Protocol: as §1

Panc-02 cells = test: Cytotoxicity, LDH assay, Panc-02 cells; type: cell-based, mouse; conditions: 48 h
Protocol: The cytotoxic activity of Gem-DHA was also evaluated using an LDH assay kit (Takara Clontech). Panc-02 cells were seeded in 96-well plates at 1,500 cells/well and incubated at 37° C. and 5% CO2 for 24 h, followed by treatment with Gem-DHA or gemcitabine HCl as mentioned above for 48 h. LDH activity in the cell culture medium was determined following the manufacturer's instruction.

[3] = Plasma pharmacokinetics after i.v. injection; type: in vivo, C57BL/6 mice; conditions: 75 mg/kg
Protocol: Healthy female C57BL/6 mice (6-8 weeks) were injected intravenously (i.v.) with Gem-DHA solution at a dose of 75 mg/kg via the tail vein. At pre-determined time intervals (5, 15, 30, 60, 120, and 180 min), 3 mice were euthanized at each time point to collect plasma samples. Gem-DHA was extracted twice using ethyl acetate and analyzed using HPLC. Data were analyzed using the Pharsight WinNonlin software (Sunnyvale, Calif.).

[4] = test system: Panc-1-Luc human pancreatic cells; test: Anti-proliferative activity, MTT assay, Panc-1-Luc cells; type: cell-based; conditions: 72 h
Protocol: as §1

SMILES: CC/C=C\C/C=C\C/C=C\C/C=C\C/C=C\C/C=C\CCC(=O)Nc1ccn(C2OC(CO)C(O)C2(F)F)c(=O)n1 (stereo not drawn) [Gem-DHA, 4-(N)-Docosahexaenoyl Difluorodeoxycytidine]
- H&E histology of tumor tissue (Panc-1-Luc tumors; compared with tumors of untreated mice): less densely packed cancer cells
- Inhibition of growth of Panc-1-Luc tumors (Panc-1-Luc tumors; i.p., ~0.087 mmole/kg (Gem-DHA 50 mg/kg, gemcitabine HCl 26.1 mg/kg), twice a week, 7 doses): more effective than the molar equivalent dose of gemcitabine HCl
- Percent of Ki-67 positive cells in tumors (Panc-1-Luc tumors; versus mice treated with gemcitabine HCl): significantly lower percent of Ki-67 positive cells
- Cleaved lamin-A positive staining in tumors (Panc-1-Luc tumors; versus untreated mice): significantly higher percent of positive staining
- Micro-vessel density (MVD) in tumors, anti-CD-31 staining (Panc-1-Luc tumors; versus untreated mice): significantly lower than in mice that were not treated
- Fold by which IC50 is smaller than that of gemcitabine HCl (BxPC-3 cells): 1.8×10^5 fold
- Distribution among organs [1]: high percent of the injected Gem-DHA was in mouse pancreas
- Cytotoxicity after 4 h of co-incubation (Panc-02 tumor cells): significant cytotoxicity
- Inhibition of tumor cell growth (comparison) [2]: more effective than gemcitabine alone or the physical mixture of gemcitabine and DHA
- Cytotoxicity, LDH assay (comparison) (Panc-02 cells): more cytotoxic than gemcitabine HCl
- Elimination from plasma (model) [3]: follows a bi-exponential model
- Inhibition of tumor cell growth (comparison) [4]: more effective than gemcitabine alone or the physical mixture of gemcitabine and DHA
